In patent US10590115B2, “Tetrahydroquinazoline derivatives useful as anticancer agents” (PFIZER INC., priority 2018, dated 2020):

What was measured:
[1] = molecular target: T1, GDP-loaded kRas (1-169) G12C, C51S, C80L, C118S (Homo sapiens, UniProt P01116, C118S/C51S/C80L/G12C); assay: Mass Spectrometry Reactivity Assay (MSRA), covalent adduct with kRas G12C; assay type: binding; details: 0.5 h at room temperature; 5 μM KRas protein; typical final concentration of the compounds 10 μM
T1 construct: GDP-loaded kRas (1-169) G12C, C51S, C80L, C118S
Experimental: Mass Spectrometry Reactivity Assay (MSRA)
Compounds presented in the present invention covalently bind to kRas G12C using MSRA to detect a covalent adduct of the exemplary compound and kRas G12C. GDP-loaded kRas (1-169) G12C, C51S, C80L, C118S were diluted in the protein assay buffer 25 mM Hepes pH7.5, 200 mM NaCl, 5% glycerol to concentration of 5 μM and 20 μl of protein was transferred into 96-well plate. […] See K-Ras(G12C) inhibitors allosterically control GTP affinity and effector interactions; Ostrem J M, Peters U, Sos M L, Wells J A, Shokat K M; Nature. 2013, Nov. 28; 503(7477):548-51.
Exemplary compounds dissolved in DMSO were diluted 100-fold into solution containing 20 μl of 5 μM KRas protein in the 96-well plate to initiate the reaction. Mosquito (TPP Lab tech) liquid handling robot was used to add compounds to protein solution. Typical final concentration of the compounds was 10 μM. The plates were placed on a shaker for 1 min at RT, sealed and incubated at room temperature for specified time period. 5 μl of reaction mix was added to 10 μl of 0.2% formic acid stop solution and mixed well. Typical end points were 30, 120, 600 and 1440 min.
Data were collected using Waters Acquity H-class UPLC system/Xevo G2-XS TOF mass spectrometer. The protein was injected in their liquid phase onto a Bruker Microtrap protein column TR1/15109/03. The following buffers were used to set LC gradient: Buffer A: 0.2% formic acid H20; B: 0.2% formic acid CAN. The protein was eluted from the column using the following LC Gradient: 0-0.4 min, 10% B to 30% B; 0.4 min-2.4 min, to 90% B, 2.5 min, 10% B, 3 min, 10% B. Initial data analysis was performed using MaxEnt software right after data acquisition.
The standard auto processing function was used to define percentage of unmodified and modified kRas protein using MexEnt software right after data acquisition. The highest peak was defined as 100% while smaller peak as assigned the number defined by autoprocessing function. The percent of modification corresponding to modified with exemplary compound and unmodified KRas GDP-loaded kRas (1-169) G12C, C51S, C80L, C118S were exported to Xcel data analysis software.
The percent of modified protein at the defined concentration of exemplary compound was calculated using the following formula: % mod=Num of modified peak/Sum of modified+unmodified.

[2] = molecular target: T2, KRAS G12C in MiaPaCa2 cells (Homo sapiens, UniProt P01116, G12C); assay: MiaPaCa2 Cell Activity Assay (Raf-1 RBD capture of active Ras, MSD); assay type: cell-based; details: MIAPaCa-2 cells, 6 hours treatment; assay limit is 30.0 μM
T2 construct: endogenous in cells; host or cells: MiaPaCa2
Experimental: MiaPaCa2 Cell Activity Assay
Compounds presented in the present invention lead to the accumulation of the GDP bound Ras upon treatment of human cancer cell line.
The accumulation of the GDP-bound KRAS G12C in cellular environment was measured based on the principle that KRAS G12C only binds to its downstream kinase; Raf-1 (MAP Kinase Kinase Kinase), when in its active-GTP bound state. In this state, Ras binded to a domain of Raf-1 kinase referred to as the Ras Binding Domain (RBD).
MiaPaCa2 cells were grown in DMEM medium (Gibco 11995) supplemented with 10% fetal bovine serum and 1% penicillin/streptomycin. Cells were seeded in 96-well tissue culture plates at a density of 40,000 cells/well and allowed to attach for 16-24 hours. Test compounds were prepared as a 10 mM stock in DMSO and serially diluted in 100% DMSO using a 3-fold dilution scheme. An intermediate 5× concentrated plate in complete growth medium was made and 25 μl/well was added to the 100 μl of cells for a final concentration of 0.1% DMSO. Each concentration of exemplary compound was tested in duplicate. The negative control wells were cells with control inhibitor at 10 μM, and the positive control wells were cells without drugs, DMSO only. Plates were incubated for 6 hours at 37° C., 5% CO2. Following treatment, cells were washed 3× with ice-cold PBS and 100 μl/well ice-cold 1× Assay/Lysis. Buffer with protease inhibitors was added (25 mM HEPES, pH 7.5, 150 mM NaCl, 1% NP-40, 10 mM MgCl2, 1 mM EDTA, 2% Glycerol). Following lysis samples were frozen at −80° C.
Raf-1 RBD (LJIC-1988A1) was diluted to 100 ng/well in PBS and 5 μl/well was spot coated onto MSD high bind SECTOR plates (L15XB). Plates were incubated at room temperature for 1 hour on an orbital shaker. Plates were washed with PBS/0.05% Tween-20 and 50 μl/well of thawed lysate samples were added, followed by 50 μl of 1% MSD Blocker A in PBS/0.05% Tween-20 (R93BA). Plates were incubated for 1 hour on an orbital shaker and washed with PBS/0.05% Tween-20. 25 μl/well of Anti-pan-Ras Antibody (Cell Biolabs 244003) diluted 1:3000 was added in 1% MSD Blocker A solution and plates were incubated for 1 hour on an orbital shaker and washed with PBS/0.05% Tween-20. SULFO-TAG goat anti-mouse secondary antibody (MSD R32AC) was diluted 1:500 in MSD Blocker A solution and added at 25 μL/well. Plates were incubated for 1 hour on an orbital shaker and washed with PBS/0.05% Tween-20. 150 μl/well of Read Buffer T (MSD R92TC) diluted 1:3 in H2O was added and plates were read on a Meso Scale Discovery Sector Imager S600.
KRAS signal was normalized to maximum inhibition and DMSO control values, and IC50 values were generated using a 4 parameter fit of the dose response curve. The decrease in IC50 reflects that the exemplary compound lead to a higher level of accumulation of GDP-bound KRAS G12C than another exemplary compounds at specific timepoint of treatment of cancer cell line.

SMILES | % Modification (0.5 h) [1] [%] | IC50 [2] [µM]
C=CC(=O)N1CCN(c2nc(N3CC(N(C)C)C3)nc3c2C[C@H](C)[C@@H](c2c(C)ccc4[nH]ncc24)C3)CC1 (single isomer, unassigned) [Example F3] | 0 | 
C=CC(=O)N1CCN(c2ncnc3c2CCC(c2c(C)ccc4[nH]ncc24)C3)CC1C (stereo not drawn) [Example B3, 1-{2-methyl-4-[7-(5-methyl-1H-indazol-4-yl)-5,6,7,8-tetrahydroquinazolin-4-yl]piperazin-1-yl}prop-2-en-1-one] | 7 | 28.4
C=CC(=O)N1CCN(c2nc(N3CC(N(C)C)C3)nc3c2C[C@H](C)[C@@H](c2c(Cl)c(C)cc4[nH]ncc24)C3)CC1 [Example F8, 1-(4-{(6S,7S)-7-(5-chloro-6-methyl-1H-indazol-4-yl)-2-[3-(dimethylamino)azetidin-1-yl]-6-methyl-5,6,7,8-tetrahydroquinazolin-4-yl}piperazin-1-yl)prop-2-en-1-one] | 12 | 22.9
C=CC(=O)N1CCN(c2ncnc3c2CCC(c2c(C)ccc4[nH]ncc24)C3)[C@@H](C)C1 (stereo partly drawn) [Example B2, 1-{(3S)-3-methyl-4-[7-(5-methyl-1H-indazol-4-yl)-5,6,7,8-tetrahydroquinazolin-4-yl]piperazin-1-yl}prop-2-en-1-one] | 13 | 
C=CC(=O)N1CCN(c2ncnc3c2C[C@@H](C)[C@H](c2c(C)ccc4[nH]ncc24)C3)CC1 (relative stereo) [Example A4, 1-{4-[(6R,7R)-rel-6-methyl-7-(5-methyl-1H-indazol-4-yl)-5,6,7,8-tetrahydroquinazolin-4-yl]piperazin-1-yl}prop-2-en-1-one] | 53 | 1.3
C=CC(=O)N1CCN(c2ncnc3c2CC[C@H](c2c(C)ccc4[nH]ncc24)C3)CC1 (single isomer, unassigned) [Example A3] | 39 | 4.15
C=CC(=O)N1CCN(c2ncnc3c2CCC(c2c(C(F)(F)F)ccc4[nH]ncc24)C3)CC1 (stereo not drawn) [Example G1, 1-(4-(7-(5-(trifluoromethyl)-1H-indazol-4-yl)-5,6,7,8-tetrahydroquinazolin-4-yl)piperazin-1-yl)prop-2-en-1-one] | 16 | 
C=CC(=O)N1CCN(c2ncnc3c2C[C@H](C)[C@@H](c2c(C)ccc4[nH]ncc24)C3)CC1 [Example A6, 1-{4-[(6S,7S)-6-methyl-7-(5-methyl-1H-indazol-4-yl)-5,6,7,8-tetrahydroquinazolin-4-yl]piperazin-1-yl}prop-2-en-1-one] | 3 | 
C=CC(=O)N1CCN(c2ncnc3c2C[C@@H](CO)[C@H](c2c(C)ccc4[nH]ncc24)C3)CC1 (relative stereo) [Example A7, 1-{4-[(6R,7R)-rel-6-(hydroxymethyl)-7-(5-methyl-1H-indazol-4-yl)-5,6,7,8-tetrahydroquinazolin-4-yl]piperazin-1-yl}prop-2-en-1-one] | 11 | 29.3
C=CC(=O)N1CCN(c2nc(OCCCO)nc3c2CCC(c2c(C)ccc4[nH]ncc24)C3)CC1 (stereo not drawn) [Example C4, 1-{4-[2-(3-hydroxpropoxy)-7-(5-methyl-1H-indazol-4-yl)-5,6,7,8-tetrahydroquinazolin-4-yl]piperazin-1-yl}prop-2-en-1-one] | 34 | 3.61
C=CC(=O)N1CCN(c2nc(N3CCN(C)CC3)nc3c2C[C@@H](C)[C@H](c2c(C)ccc4[nH]ncc24)C3)CC1 (relative stereo) [Example F4] | 22 | 4.29
C=CC(=O)N1CCN(c2ncnc3c2CC[C@H](c2cc(O)cc4ccccc24)C3)CC1 (single isomer, unassigned) [Example G3] | 73 | 1.11
C=CC(=O)N1CCN(c2ncnc3c2CC[C@@H](c2cc(O)cc4ccccc24)C3)CC1 (single isomer, unassigned) [Example G2] | 0 | 
C=CC(=O)N1CCN(c2ncnc3c2C[C@@H](C)[C@H](c2c(C)cc(O)c4[nH]ncc24)C3)CC1 [Example E1, 1-{4-[(6R,7R)-7-(7-hydroxy-5-methyl-1H-indazol-4-yl)-6-methyl-5,6,7,8-tetrahydroquinazolin-4-yl]piperazin-1-yl}prop-2-en-1-one] | 40 | 
C=CC(=O)N1CCN(c2ncnc3c2C[C@@H](C)[C@H](c2c(CO)ccc4[nH]ncc24)C3)CC1 [Example D1, 1-(4-{(6R,7R)-7-[5-(hydroxymethyl)-1H-indazol-4-yl]-6-methyl-5,6,7,8-tetrahydroquinazolin-4-yl}piperazin-1-yl)prop-2-en-1-one] | 12 | 
C=CC(=O)N1CCN(c2nc(OCCCOC)nc3c2CCC(c2c(C)ccc4[nH]ncc24)C3)CC1 (stereo not drawn) [Example C2, 1-{4-[2-(3-methoxypropoxy)-7-(5-methyl-1H-indazol-4-yl)-5,6,7,8-tetrahydroquinazolin-4-yl]piperazin-1-yl}prop-2-en-1-one] | 22 | 
C=CC(=O)N1CCN(c2nc(N3CC(N(C)C)C3)nc3c2C[C@H](C)[C@@H](c2c(Cl)ccc4[nH]ncc24)C3)CC1 (single isomer, unassigned) [Example F11] | 8 | 
C=CC(=O)N1CCN(c2nc(N3CC(NC)C3)nc3c2C[C@@H](C)[C@H](c2c(C)c(Cl)cc4[nH]ncc24)C3)CC1 [Example H1, 1-(4-{(6R,7R)-7-(6-chloro-5-methyl-1H-indazol-4-yl)-6-methyl-2-[3-(methylamino)azetidin-1-yl]-5,6,7,8-tetrahydroquinazolin-4-yl}piperazin-1-yl)prop-2-en-1-one] |  | 0.178
C=CC(=O)N1CCN(c2ncnc3c2CC[C@@H](c2c(C)ccc4[nH]ncc24)C3)CC1 (single isomer, unassigned) [Example A2] | 0 | 
